Test results as given in the supplement of paper PMC10307832.

Legend:
Experiment in all cases: relative viability (nuclei count vs DMSO), 5 days (fraction); higher = more cells survive
[1] = system: NCI-H3122
How it was run: (§1)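 Relative viability equals treated-well nuclei counts divided by vehicle-well nuclei counts. Counts came from 4× images of lung cancer cell lines grown in 1536-well plates for 5 days after pin-tool dosing on the day after seeding. Dosing used one drug alone or a fixed anchor-drug dose plus five library-drug doses (not always all listed) in √10 steps, and values are medians of duplicate plates.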

[2] = system: HCC-78
How it was run: as §1

[3] = system: LK-2
How it was run: as §1

[4] = system: NCI-H2126
How it was run: as §1

[5] = system: SW 900
How it was run: as §1

[6] = system: RERF-LC-KJ
How it was run: as §1

[7] = system: SW 1573
How it was run: as §1

[8] = system: ChaGo-K-1
How it was run: as §1

[9] = system: NCI-H1975
How it was run: as §1

[10] = system: NCI-H2085
How it was run: as §1

[11] = system: NCI-H1666
How it was run: as §1

[12] = system: EPLC-272H
How it was run: as §1

[13] = system: NCI-H23
How it was run: as §1

[14] = system: LOU-NH91
How it was run: as §1

[15] = system: NCI-H1563
How it was run: as §1

[16] = system: LU99A
How it was run: as §1

[17] = system: EMC-BAC-2
How it was run: as §1

[18] = system: LCLC-103H
How it was run: as §1

[19] = system: HCC-827
How it was run: as §1

[20] = system: HCC-366
How it was run: as §1

[21] = system: NCI-H2405
How it was run: as §1

[22] = system: LXF-289
How it was run: as §1

[23] = system: SK-LU-1
How it was run: as §1

COc1cc(N2CCC(C(N)=O)CC2)ccc1Nc1nc(N)c(Cl)c(Nc2ccccc2S(=O)(=O)C(C)C)n1 [HG-5-88-01] + Cc1nc(Nc2ncc(C(=O)Nc3c(C)cccc3Cl)s2)cc(N2CCN(CCO)CC2)n1 [Dasatinib] (partner 0.075 µM)
relative viability ([1]; first compound 0.04 µM): 0.542 | relative viability ([1]; first compound 0.1265 µM): 0.209 | relative viability ([1]; first compound 0.4 µM): 0.149 | relative viability ([1]; first compound 1.265 µM): 0.161 | relative viability ([1]; first compound 4 µM): 0.109 | relative viability ([2]; first compound 0.04 µM): 0.356 | relative viability ([2]; first compound 0.1265 µM): 0.286 | relative viability ([2]; first compound 0.4 µM): 0.22 | relative viability ([2]; first compound 1.265 µM): 0.197 | relative viability ([2]; first compound 4 µM): 0.174 | relative viability ([3]; first compound 0.04 µM): 0.334 | relative viability ([3]; first compound 0.1265 µM): 0.235 | relative viability ([3]; first compound 0.4 µM): 0.173 | relative viability ([3]; first compound 1.265 µM): 0.247 | relative viability ([3]; first compound 4 µM): 0.184 | relative viability ([4]; first compound 0.04 µM): 0.617 | relative viability ([4]; first compound 0.1265 µM): 0.565 | relative viability ([4]; first compound 0.4 µM): 0.449 | relative viability ([4]; first compound 1.265 µM): 0.34 | relative viability ([4]; first compound 4 µM): 0.259 | relative viability ([5]; first compound 0.04 µM): 0.848 | relative viability ([5]; first compound 0.1265 µM): 0.548 | relative viability ([5]; first compound 0.4 µM): 0.391 | relative viability ([5]; first compound 1.265 µM): 0.578 | relative viability ([5]; first compound 4 µM): 0.17 | relative viability ([6]; first compound 0.04 µM): 0.804 | relative viability ([6]; first compound 0.1265 µM): 0.81 | relative viability ([6]; first compound 0.4 µM): 0.671 | relative viability ([6]; first compound 1.265 µM): 0.465 | relative viability ([6]; first compound 4 µM): 0.41 | relative viability ([7]; first compound 0.04 µM): 0.425 | relative viability ([7]; first compound 0.1265 µM): 0.426 | relative viability ([7]; first compound 0.4 µM): 0.353 | relative viability ([7]; first compound 1.265 µM): 0.279 | relative viability ([7]; first compound 4 µM): 0.266 | relative viability ([8]; first compound 0.04 µM): 0.776 | relative viability ([8]; first compound 0.1265 µM): 0.63 | relative viability ([8]; first compound 0.4 µM): 0.509 | relative viability ([8]; first compound 1.265 µM): 0.57 | relative viability ([8]; first compound 4 µM): 0.401 | relative viability ([9]; first compound 0.04 µM): 0.358 | relative viability ([9]; first compound 0.1265 µM): 0.352 | relative viability ([9]; first compound 0.4 µM): 0.284 | relative viability ([9]; first compound 1.265 µM): 0.217 | relative viability ([9]; first compound 4 µM): 0.145 | relative viability ([10]; first compound 0.04 µM): 0.296 | relative viability ([10]; first compound 0.1265 µM): 0.242 | relative viability ([10]; first compound 0.4 µM): 0.24 | relative viability ([10]; first compound 1.265 µM): 0.186 | relative viability ([10]; first compound 4 µM): 0.163 | relative viability ([11]; first compound 0.04 µM): 0.873 | relative viability ([11]; first compound 0.1265 µM): 0.837 | relative viability ([11]; first compound 0.4 µM): 0.643 | relative viability ([11]; first compound 1.265 µM): 0.539 | relative viability ([11]; first compound 4 µM): 0.389 | relative viability ([12]; first compound 0.04 µM): 0.49 | relative viability ([12]; first compound 0.1265 µM): 0.31 | relative viability ([12]; first compound 0.4 µM): 0.226 | relative viability ([12]; first compound 1.265 µM): 0.121 | relative viability ([12]; first compound 4 µM): 0.0712 | relative viability ([13]; first compound 0.04 µM): 0.703 | relative viability ([13]; first compound 0.1265 µM): 0.84 | relative viability ([13]; first compound 0.4 µM): 0.51 | relative viability ([13]; first compound 1.265 µM): 0.588 | relative viability ([13]; first compound 4 µM): 0.265 | relative viability ([14]; first compound 0.04 µM): 0.57 | relative viability ([14]; first compound 0.1265 µM): 0.524 | relative viability ([14]; first compound 0.4 µM): 0.493 | relative viability ([14]; first compound 1.265 µM): 0.321 | relative viability ([14]; first compound 4 µM): 0.243 | relative viability ([15]; first compound 0.04 µM): 0.453 | relative viability ([15]; first compound 0.1265 µM): 0.445 | relative viability ([15]; first compound 0.4 µM): 0.436 | relative viability ([15]; first compound 1.265 µM): 0.367 | relative viability ([15]; first compound 4 µM): 0.381 | relative viability ([16]; first compound 0.04 µM): 0.592 | relative viability ([16]; first compound 0.1265 µM): 0.496 | relative viability ([16]; first compound 0.4 µM): 0.434 | relative viability ([16]; first compound 1.265 µM): 0.21 | relative viability ([16]; first compound 4 µM): 0.237 | relative viability ([17]; first compound 0.04 µM): 0.31 | relative viability ([17]; first compound 0.1265 µM): 0.343 | relative viability ([17]; first compound 0.4 µM): 0.217 | relative viability ([17]; first compound 1.265 µM): 0.243 | relative viability ([17]; first compound 4 µM): 0.218 | relative viability ([18]; first compound 0.04 µM): 0.522 | relative viability ([18]; first compound 0.1265 µM): 0.464 | relative viability ([18]; first compound 0.4 µM): 0.418 | relative viability ([18]; first compound 1.265 µM): 0.373 | relative viability ([18]; first compound 4 µM): 0.341 | relative viability ([19]; first compound 0.04 µM): 0.279 | relative viability ([19]; first compound 0.1265 µM): 0.271 | relative viability ([19]; first compound 0.4 µM): 0.235 | relative viability ([19]; first compound 1.265 µM): 0.101 | relative viability ([19]; first compound 4 µM): 0.118 | relative viability ([20]; first compound 0.04 µM): 0.65 | relative viability ([20]; first compound 0.1265 µM): 0.677 | relative viability ([20]; first compound 0.4 µM): 0.514 | relative viability ([20]; first compound 1.265 µM): 0.691 | relative viability ([20]; first compound 4 µM): 0.3 | relative viability ([21]; first compound 0.04 µM): 0.207 | relative viability ([21]; first compound 0.1265 µM): 0.179 | relative viability ([21]; first compound 0.4 µM): 0.155 | relative viability ([21]; first compound 1.265 µM): 0.197 | relative viability ([21]; first compound 4 µM): 0.153 | relative viability ([22]; first compound 0.04 µM): 0.252 | relative viability ([22]; first compound 0.1265 µM): 0.198 | relative viability ([22]; first compound 0.4 µM): 0.116 | relative viability ([22]; first compound 1.265 µM): 0.132 | relative viability ([22]; first compound 4 µM): 0.11 | relative viability ([23]; first compound 0.04 µM): 0.178 | relative viability ([23]; first compound 0.1265 µM): 0.182 | relative viability ([23]; first compound 0.4 µM): 0.106 | relative viability ([23]; first compound 1.265 µM): 0.123 | relative viability ([23]; first compound 4 µM): 0.0874
